Test results as given in BigSolDB 2.1.

O=[N+]([O-])c1c(Cl)cc(Cl)c([N+](=O)[O-])c1Cl
solubility (mole fraction)
Conditions	278.15 K	283.15 K	288.15 K	293.15 K	298.15 K	303.15 K	308.15 K	311.15 K	313.15 K	318.15 K
in 1,2-dichloroethane	0.0536	0.0636	0.0732	0.0837	0.0961	0.108	0.123	–	0.144	0.168
in acetone	0.0844	0.0944	0.106	0.117	0.13	0.145	0.162	–	0.18	0.2
in acetonitrile	0.0224	0.0267	0.0313	0.0373	0.0447	0.0531	0.0635	–	0.0769	0.0928
in chloroform	0.0715	0.0892	0.0997	0.11	0.121	0.129	0.141	–	0.165	0.197
in dichloromethane	0.0668	0.0758	0.0869	0.0981	0.11	0.125	0.141	0.147	–	–
in ethanol	0.00389	0.00461	0.00539	0.0062	0.00712	0.00831	0.00969	–	0.0113	0.0132
in ethyl acetate	0.0768	0.0849	0.0947	0.105	0.116	0.13	0.145	–	0.16	0.177
in methanol	0.0034	0.00426	0.00698	0.0221	0.0422	0.0562	0.0718	–	0.0849	0.0909
in methyl acetate	0.074	0.0832	0.0943	0.109	0.124	0.14	0.156	–	0.173	0.19
in n-butanol	0.00475	0.00566	0.00668	0.00776	0.00906	0.0108	0.013	–	0.0157	0.0189
in n-propanol	0.00412	0.0049	0.00565	0.00668	0.00793	0.00921	0.0109	–	0.0132	0.0158
in tetrachloromethane	0.0155	0.0185	0.0224	0.0277	0.0341	0.0411	0.0492	–	0.0589	0.0695
